Experimental findings from US20040167330A1, “Novel chelating agents and conjugates thereof, their synthesis and use as diagnois and therapeutic agents” (priority 2004, published 2004) are described below.

Holding throughout (assay type): physicochemical
Data set [1] is described as follows: Formation of ^90Y-yttrium complex, radiochemical yield by TLC/HPLC. The conditions noted are these: for radiochemical yield: 25° C. The protocol:
Purified DO3A-P^BnNH2 was dissolved in demineralised water at a concentration of 9×10^−5 mol/l. 0.1 ml of this solution were transferred into a small reaction vial (PE). 0.1 ml ^90Y-yttrium chloride (YCl3) in 0.1 M HCl and 0.1 ml ammonium acetate buffer, pH 5.7, were added. The reaction solutions were mixed well. pH values were measured continuously while preparing the solution. 24 identical solutions were prepared accordingly and stored at 25° C. and 37° C. respectively.
Samples were taken after 15 min, 30 min, 45 min, 60 min, 90 min and 120 min and analyzed by thin layer chromatography using silica gel (POLYGRAM SIL G/UV254) or, preferably, paper (Whatman No. 1) as solid phase. TLC was run using either solvent I: 0.1 N ammonium acetate solution or solvent II: 3% sodium chloride solution as developing solution. In parallel, samples (20 μl) were analyzed by gel filtration using HPLC. The HPLC-system comprised a gamma detector (Berthold LB 506) and a UV/VIS spectrometer (Waters 486) installed in two flow through cells, respectively.
Temperature- and time-dependent studies have shown a very short reaction time for the complex formation of a ^90Y-Yttrium-DO3A-complex.
Furthermore, the effect of pH and ligand concentration on radiochemical yield was evaluated. Table 5 summarizes the results relating to the variation of pH between pH 2.0 and pH 8.9 while maintaining a constant ratio of DO3A-P^BnNH2 and Y of 3:1 and a reaction time of 60 min at 25° C. Accordingly, best labeling results are achieved at pH values of 4.9-8.0. Table 6 summarizes the results relating to the variation of the ligand concentration DO3A-P^BnNH2: Y between 1:1 up to 7:1 while maintaining a constant pH range (pH 5.2) and reaction time of 60 min at 25° C.

Data set [2] in a line: Relaxation measurements of gadolinium(III) complex solutions. The conditions noted are these: at 10 MHz. The protocol:
Solution was stirred for 1 h at room temperature and pH was set to approx. pH 7 by careful addition of solid KOH. Thus prepared solution as well as other solutions of different concentration which were prepared by a similar approach (all containing known amount of water and gadolinium(III)) were used for relaxation measurements. The solutions gave relaxivity 7.86 mmol^−1 s^−1 (at 10 MHz).
Solution of gadolinium(III) complex of compound 1 for relaxation measurements were prepared similarly to Example 51. The solutions gave relaxivity 7.54 mmol-1 s^−1 (at 10 MHz). Exchange half-life of coordinated water molecule 70 ns was determined (from temperature dependence of ^17O NMR parameters).

The nature of data set [3]: Formation of ^90Y-yttrium complex, radiochemical yield by TLC/HPLC. The conditions noted are these: reaction time 0 min; 25° C.; [Y] = 1,2 · 10^−3 mol/l; ratio of ligand: Y = 1:1; pH = 5.5.

Regarding `Nc1ccc(CP(=O)(O)CN2CCN(CC(=O)O)CCN(CC(=O)O)CCN(CC(=O)O)CC2)cc1` [Compound 11], the “pH values at which best labeling results are achieved” value in data set [1] (^90Y, ratio of DO3A-P^BnNH2 and Y of 3:1, reaction time of 60 min at 25° C., pH varied 2.0 to 8.9) is 4.9-8.0. Moreover, the radiochemical yield stood at 94% in data set [1] (ratio of ligand:Y 1:1, [Y] = 1.2 · 10^−3 mol/l, pH = 5.2, reaction time 60 min); 97% in data set [1] (reaction time 15 min, [Y] = 1,2 · 10^−3 mol/l, ratio of ligand: Y = 1:1, pH = 5.5); 88% in data set [3]. In addition, the relaxivity in data set [2] (gadolinium(III) complex prepared in solution from GdCl3.6H2O, approx. pH 7) amounted to 7.86 mmol⁻¹ s⁻¹.

In the case of “Gadolinium(III) Complex of DO3A-P [gadolinium(III) complex of compound 1]”, the relaxivity in data set [2] (gadolinium(III) complex in solution) is 7.54 mmol⁻¹ s⁻¹.
